Test results taken from patent US8933015B2, “Macrocyclic inhibitors of flaviviridae viruses” (Gilead Sciences, Inc., priority 2010, dated 2015).
Where two headings read alike, the source gives them in different places.

What was measured:
[1] = rcm bond, 22-membered ring
cyclophilin A = cyclophilin A (Homo sapiens, UniProt P62937); assay: Cyclophilin A TR-FRET competitive binding assay; conditions: inhibition of cyclophilin binding; 5 nM CypA, 150 nM CsA-Cy5
Experimental: Cyclophilin A TR-FRET Competitive Binding Assay
Inhibitor potency was measured using a competitive binding assay with a time-resolved fluorescence resonance energy transfer (TR-FRET) readout. […] The total volume of the assay solution was 100 μL. […] An IC50 value was calculated using a four-parameter logistic fit.

[2] = system: human hepatoma Huh-7 cell line harboring a HCV replicon; assay: HCV replicon assay (inhibition of viral replication, luciferase); format: cell-based; conditions: Hepatitis C virus; for EC50: Huh-7, 72 h; for inhibition at 1 µM: Huh-7, read-out: % inhibition at 1 μM
Experimental: The anti-HCV activity of the compounds of this invention was tested in a human hepatoma Huh-7 cell line harboring a HCV replicon. The assay comprised the following steps:
Step 1: Compound Preparation and Serial Dilution
Serial dilution was performed in 100% DMSO in a 384-well plate. A solution containing a compound at 225-fold concentration of the starting final serial dilution concentration was prepared in 100% DMSO and 15 uL added to the pre-specified wells in column 3 or 13 of a polypropylene 384-well plate. The rest of the 384-well plate was filled with 10 uL 100% DMSO except for columns 23 and 24, where 10 uL of 500 uM a HCV protease inhibitor (ITMN-191) in 100% DMSO was added. […] The plate was then placed on a Biomek FX Workstation to start the serial dilution. The serial dilution was performed for ten cycles of 3-fold dilution from column 3 to 12 or from column 13 to 22.
Step 2: Cell Culture Plate Preparation and Compound Addition
To each well of a black polypropylene 384-well plate, 90 μL of cell media containing 1600 suspended Huh-7 HCV replicon cells was added with a Biotek uFlow Workstation. A volume of 0.4 μL of the compound solution was transferred from the serial dilution plate to the cell culture plate on a Biomek FX Workstation. The DMSO concentration in the final assay condition was 0.44%. The plates were incubated for 3 days at 37° C. with 5% CO2 and 85% humidity.
Step 3: Detection of Cytotoxicity and Inhibition of Viral Replication
b) Assessment of inhibition of viral replication: The calcein-PBS solution in the 384-well cell culture plate was aspirated with a Biotek EL405 plate-washer. A volume of 20 μL of Dual-Glo luciferase buffer (Promega, Dual-Glo Luciferase Assay Reagent, cat. #E298B) was added to each well of the plate with a Biotek uFlow Workstation. The plate was incubated for 10 minutes at room temperature. A volume of 20 μL of a solution containing 1:100 mixture of Dual-Glo Stop & Glo substrate (Promega, Dual-Glo Luciferase Assay Reagent, cat. #E313B) and Dual-Glo Stop & Glo buffer (Promega, Dual-Glo Luciferase Assay Reagent, cat. #E314B) was then added to each well of the plate with a Biotek uFlow Workstation. The plate was incubated at room temperature for 10 minutes before the luminescence signal was measured with a Perkin Elmer Envision Plate Reader.
The percent cytotoxicity was determined by calcein AM conversion to fluorescent product. The average fluorescent signal from the DMSO control wells were defined as 100% nontoxic. The individual fluorescent signal from testing compound treated well was divided by the average signal from DMSO control wells and then multiplied by 100% to get the percent viability. The percent anti-HCV replication activity was determined by the luminescence signal from the testing well compared to DMSO controls wells. The background signal was determined by the average luminescence signal from the HCV protease inhibitor treated wells and was subtracted from the signal from the testing wells as well as the DMSO control wells.
Where b is Hill's coefficient. See, for reference, Hill, A. V., The Possible Effects of the Aggregation of the Molecules of Hemoglobin on its Dissociation Curves, J. Physiol. 40: iv-vii. (1910).
% inhibition values at a specific concentration, for example 2 μM, can also be derived from the formula above.
The EC50's are presented as a % inhibition.

Chain of cyclophilin A (P62937 whole entry, species assumed): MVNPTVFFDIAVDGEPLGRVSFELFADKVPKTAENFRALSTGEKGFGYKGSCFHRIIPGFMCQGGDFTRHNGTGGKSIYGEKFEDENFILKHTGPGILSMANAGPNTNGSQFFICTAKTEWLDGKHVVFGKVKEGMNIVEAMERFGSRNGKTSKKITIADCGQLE

| SMILES | IC50 (cyclophilin A) [nM] | EC50 [2] [nM] | inhibition at 1 µM [2] [%] | also measured |
| --- | --- | --- | --- | --- |
| CCO[C@@H]1CC/C=C/c2cccc(c2)COC(=O)[C@@H]2CCCN(N2)C(=O)[C@H](Cc2cccc(O[Si](C)(C)C(C)(C)C)c2)NC(=O)[C@H](C(C)C)NC(=O)[C@@H]1C | – | – | – | ring closure, isolated yield ([1]; from C=CCC[C@@H](OCC)[C@@H](C)C(=O)N[C@H](C(=O)N[C@@H](Cc1cccc(O[Si](C)(C)C(C)(C)C)c1)C(=O)N1CCC[C@@H](C(=O)OCc2cccc(C=C)c2)N1)C(C)C, Hoveyda-Grubbs II, DCE, 2.53 mM, 83.0 °C, 1.5 h): 66% |
| CO[C@@H]1CC/C=C/CCCCOC(=O)[C@@H]2CCCN(N2)C(=O)[C@H](Cc2cccc(O[Si](C)(C)C(C)(C)C)c2)NC(=O)[C@H](C(C)C)NC(=O)[C@@H]1C | – | – | – | ring closure, isolated yield ([1]; from C=CCCCCOC(=O)[C@@H]1CCCN(C(=O)[C@H](Cc2cccc(O[Si](C)(C)C(C)(C)C)c2)NC(=O)[C@@H](NC(=O)[C@H](C)[C@@H](CCC=C)OC)C(C)C)N1, Grubbs II, DCE, 3.02 mM, 83.0 °C, 3.0 h): 48% |
| CO[C@@H]1CC/C=C/c2ccnc(c2)COC(=O)[C@@H]2CCCN(N2)C(=O)[C@H](Cc2cccc(O[Si](C)(C)C(C)(C)C)c2)NC(=O)[C@H](C(C)C)NC(=O)[C@@H]1C | – | – | – | ring closure, isolated yield ([1]; from C=CCC[C@@H](OC)[C@@H](C)C(=O)N[C@H](C(=O)N[C@@H](Cc1cccc(O[Si](C)(C)C(C)(C)C)c1)C(=O)N1CCC[C@@H](C(=O)OCc2cc(C=C)ccn2)N1)C(C)C, Hoveyda-Grubbs II, DCE, 2.69 mM, 80.0 °C, 3.0 h): 61% |
| CO[C@@H]1CCC=Cc2ccc3c(c2)[C@@H](CC3)OC(=O)[C@@H]2CCCN(N2)C(=O)[C@H](Cc2cccc(O[Si](C)(C)C(C)(C)C)c2)NC(=O)[C@H](C(C)C)NC(=O)[C@@H]1C | – | – | – | ring closure, isolated yield ([1]; from C=CCC[C@@H](OC)[C@@H](C)C(=O)N[C@H](C(=O)N[C@@H](Cc1cccc(O[Si](C)(C)C(C)(C)C)c1)C(=O)N1CCC[C@@H](C(=O)O[C@@H]2CCc3ccc(C=C)cc32)N1)C(C)C, Hoveyda-Grubbs II (two portions), DCE, 3.16 mM, 83.0 °C, 6.0 h, 2 steps): 14% |
| CO[C@@H]1CCC=Cc2cccc(c2)COC(=O)[C@@H]2CCCN(N2)C(=O)[C@H](Cc2cccc(O[Si](C)(C)C(C)(C)C)c2)NC(=O)[C@H](C(C)C)NC(=O)[C@@H]1C | – | – | – | ring closure, isolated yield ([1]; from C=CCC[C@@H](OC)[C@@H](C)C(=O)N[C@H](C(=O)N[C@@H](Cc1cccc(O[Si](C)(C)C(C)(C)C)c1)C(=O)N1CCC[C@@H](C(=O)OCc2cccc(C=C)c2)N1)C(C)C, Grubbs I, DCM, 3.0 mM, 40.0 °C, 16.0 h): 75% |
| CO[C@@H]1CCC=Cc2cccc(c2)[C@@H](C)NC(=O)[C@@H]2CCCN(N2)C(=O)[C@H](Cc2cccc(O[Si](C)(C)C(C)(C)C)c2)NC(=O)[C@H](C(C)C)NC(=O)[C@@H]1C | – | – | – | ring closure, isolated yield ([1]; from C=CCC[C@@H](OC)[C@@H](C)C(=O)N[C@H](C(=O)N[C@@H](Cc1cccc(O[Si](C)(C)C(C)(C)C)c1)C(=O)N1CCC[C@@H](C(=O)N[C@H](C)c2cccc(C=C)c2)N1)C(C)C, Hoveyda-Grubbs II, DCE, 2.59 mM, 80.0 °C, 3.0 h): 22% |
| CO[C@@H]1CCC=Cc2cccc(c2)[C@@H](C)OC(=O)[C@@H]2CCCN(N2)C(=O)[C@H](Cc2cccc(O[Si](C)(C)C(C)(C)C)c2)NC(=O)[C@H](C(C)C)NC(=O)[C@@H]1C | – | – | – | ring closure, isolated yield ([1]; from C=CCC[C@@H](OC)[C@@H](C)C(=O)N[C@H](C(=O)N[C@@H](Cc1cccc(O[Si](C)(C)C(C)(C)C)c1)C(=O)N1CCC[C@@H](C(=O)O[C@H](C)c2cccc(C=C)c2)N1)C(C)C, Hoveyda-Grubbs II, DCE, 2.68 mM, 83.0 °C, 3.0 h): 70% |
| CO[C@@H]1[C@@H](C)[C@@H](OC)C=CC=CC[C@@H](C)OC(=O)[C@@H]2CCCN(N2)C(=O)[C@H](Cc2cccc(O[Si](C)(C)C(C)(C)C)c2)NC(=O)[C@H](C(C)C)NC(=O)[C@@H]1C | – | – | – | ring closure, isolated yield ([1]; from C=C/C=C\[C@H](OC)[C@H](C)[C@@H](OC)[C@@H](C)C(=O)N[C@H](C(=O)N[C@@H](Cc1cccc(O[Si](C)(C)C(C)(C)C)c1)C(=O)N1CCC[C@@H](C(=O)O[C@H](C)CC=C)N1)C(C)C, Grubbs I (two portions), DCM, 2.0 mM, 40.0 °C, 42.0 h): 42% |
| COc1ccc(C[C@@H]2NC(=O)[C@H](C)[C@H](OC)[C@@H](C)[C@@H](OC)C=CC=CCCOC(=O)[C@@H]3CCCN(N3)C(=O)[C@H](Cc3cccc(O[Si](C)(C)C(C)(C)C)c3)NC2=O)cc1 | – | – | – | ring closure, isolated yield ([1]; from C=C/C=C\[C@H](OC)[C@H](C)[C@@H](OC)[C@@H](C)C(=O)N[C@@H](Cc1ccc(OC)cc1)C(=O)N[C@@H](Cc1cccc(O[Si](C)(C)C(C)(C)C)c1)C(=O)N1CCC[C@@H](C(=O)OCCC=C)N1, Grubbs I, DCM, 2.52 mM, 40.0 °C, 24.0 h): 34% |
| COc1ccc(C[C@@H]2NC(=O)[C@H](C)[C@H](OC)[C@@H](C)[C@@H](OC)/C=C/C=C/CCOC(=O)[C@@H]3CCCN(N3)C(=O)[C@H](Cc3cccc(O)c3)NC2=O)cc1 [Compound 21, (13 E,15E)-(3S,6S,9R,10R,11S,12S,21S)-3-(3-Hydroxy-benzyl)-10,12-dimethoxy-6-(4-methoxy-benzyl)-9,11-dimethyl-19-oxa-1,4,7,25-tetraazabicyclo[19.3.1]pentacosa-13,15-diene-2,5,8,20-tetraone] | 101 to 1000 | 1100 to 10000 | 18 | – |
| CO[C@@H]1CC/C=C/c2cccc(c2)[C@@H](C)OC(=O)[C@@H]2CCCN(N2)C(=O)[C@H](Cc2cccc(O)c2)NC(=O)[C@H](C(C)C)NC(=O)C1 [Compound 22, (E)-(2R,5S,11S,14S,18R)-11-(3-Hydroxy-benzyl)-14-isopropyl-18-methoxy-2-methyl-3-oxa-9,12,15,28-tetraaza-tricyclo[21.3.1.1*5,9*]octacosa-1(26),21,23(27),24-tetraene-4,10,13,16-tetraone] | < 100 | < 1000 | 70 | – |
| CO[C@@H]1CC/C=C/CCCCOC(=O)[C@@H]2CCCN(N2)C(=O)[C@H](Cc2cccc(O)c2)NC(=O)[C@H](C(C)C)NC(=O)[C@@H]1C [Compound 23, (E)-(3S,6S,9R,10R,21S)-3-(3-Hydroxy-benzyl)-6-isopropyl-10-methoxy-9-methyl-19-oxa-1,4,7,25-tetraaza-bicyclo[19.3.1]pentacos-13-ene-2,5,8,20-tetraone] | 101 to 1000 | < 1000 | 41 | – |
| CCO[C@@H]1CC/C=C/c2cccc(c2)COC(=O)[C@@H]2CCCN(N2)C(=O)[C@H](Cc2cccc(O)c2)NC(=O)[C@H](C(C)C)NC(=O)[C@@H]1C [Compound 24, (E)-(5S,11S,14S,17R,18R)-18-Ethoxy-11-(3-hydroxy-benzyl)-14-isopropyl-17-methyl-3-oxa-9,12,15,28-tetraaza-tricyclo[21.3.1.1*5,9*]octacosa-1(26),21,23(27),24-tetraene-4,10,13,16-tetraone] | < 100 | < 1000 | 65 | – |
| CO[C@@H]1[C@@H](C)[C@@H](OC)CCc2cccc(c2)CNC(=O)[C@@H]2CCCN(N2)C(=O)[C@H](Cc2cccc(O)c2)NC(=O)[C@H](C(C)C)NC(=O)[C@@H]1C [Compound 25, (5S,11S,14S,17R,18R,19S,20S)-11-(3-Hydroxy-benzyl)-14-isopropyl-18,20-dimethoxy-17,19-dimethyl-3,9,12,15,28-pentaaza-tricyclo[21.3.1.1*5,9*]octacosa-1(27),23,25-triene-4,10,13,16-tetraone] | 101 to 1000 | 1100 to 10000 | 34 | – |
| CO[C@@H]1CC/C=C/C2=CC=C(COC(=O)[C@@H]3CCCN(N3)C(=O)[C@H](Cc3cccc(O)c3)NC(=O)[C@H](C(C)C)NC(=O)[C@@H]1C)S2 [Compound 26, (E)-(1S,13R,14R,17S,20S)-20-(3-Hydroxy-benzyl)-17-isopropyl-13-methoxy-14-methyl-3-oxa-27-thia-16,19,22,26-tetraaza-tricyclo[20.3.1.1*5,8*]heptacosa-5,7,9-triene-2,15,18,21-tetraone] | 101 to 1000 | 10100 to 100000 | 9 | – |
